This is an account of results in patent US20180177766A1, “THERAPEUTIC AGENT FOR NEUROTROPHIC KERATOPATHY” (SENJU PHARMACEUTICAL CO., LTD., priority 2015, published 2018).

In one assay the target is T1, PPARδ (Homo sapiens, UniProt Q03181).
T1 sequence (Q03181 1-441): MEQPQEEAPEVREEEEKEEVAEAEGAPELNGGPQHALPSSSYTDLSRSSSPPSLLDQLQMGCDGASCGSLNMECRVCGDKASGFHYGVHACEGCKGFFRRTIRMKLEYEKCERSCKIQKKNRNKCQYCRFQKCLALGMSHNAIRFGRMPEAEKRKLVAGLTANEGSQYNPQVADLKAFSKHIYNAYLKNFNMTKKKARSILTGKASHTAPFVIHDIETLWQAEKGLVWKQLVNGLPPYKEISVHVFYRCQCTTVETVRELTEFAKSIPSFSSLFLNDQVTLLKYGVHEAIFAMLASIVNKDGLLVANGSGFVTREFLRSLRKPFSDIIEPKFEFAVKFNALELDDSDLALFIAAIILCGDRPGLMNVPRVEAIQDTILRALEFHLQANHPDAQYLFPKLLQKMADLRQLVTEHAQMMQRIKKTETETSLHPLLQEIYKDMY
Conditions: method described in Example 12 of WO 2003/033493; cited from earlier work.

In assay [1] the test system is corneal epithelial disorder in GK rats. Nature of the assay: Corneal epithelial disorder in spontaneously diabetic Goto-Kakizaki (GK) rat, fluorescein staining score. In kind it is in vivo. Here is the method: Male GK rats (20 rats) (Wakuta M., et al., Invest. Ophthalmol. Vis. Sci. 2007 48 590-596) purchased from CLEA Japan, Inc. were used. Corneal epithelial disorders associated with neuropathy were found in GK rats (Wang F., et al., Am J Pathol. 2012 181 2058-2066). GK rats are originated from Wistar rats and therefore, Wistar rats were used as normal control group (7 rats). The animals were bred in a breeding room set to room temperature 23° C.±3° C., humidity 55%±10% RH, 12 hr lighting (08:00 lighting, 20:00 lights-out) from the arrival to the test end date. The animals were allowed to freely ingest a solid feed (Labo MR Stock, Nosan Corporation) and freely ingest tap water, passed through a sterilizer for animal drink, from an automatic-water supply apparatus. The test was performed on an approval from the animal care and use committee based on the Act on Welfare and Management of Animals (Act No. 105 of Oct. 1, 1973, final revision: Act No. 38 of Jun. 12, 2013) and the like.
As a test substance, compound A was used. Compound A was dissolved in the vehicle (Table 2) to 0.005% and used as an ophthalmic solution. As a control group, a vehicle ophthalmic solution made solely of a vehicle (Table 2) and free of compound A was used.
GK rats were assigned to three groups of compound A ophthalmic solution administration group (4 rats) and non-administration group and vehicle ophthalmic solution administration group (8 for each group) using a statistical analysis software (SAS clinical package ver. 5.0, SAS Institute Japan), such that mean blood glucose concentration and mean corneal epithelial disorder score measured before instillation administration were uniform.
Compound A ophthalmic solution or vehicle ophthalmic solution was administered by instillation for 14 days. Instillation administration was performed 4 times per day at 10 μL/administration to both eyes with a micropipette. The administration was not performed on the non-administration group and Wistar rats.
0.1% Sodium fluoresceinate (Wako Pure Chemical Industries, Ltd.) (5 μL) was administered by instillation and fluorescein staining of the corneal epithelium was observed using a slit lamp, whereby the degree of corneal epithelial disorder was determined. To show the degree of abnormal findings in detail, one item was added to the diagnostic criteria of the McDonald-Shadduck method and used as the diagnostic criteria of the test (Table 3). The corneal epithelial disorder was scored for each of the three (upper, middle and lower) regions and the scores of the 3 regions were added up together. The corneal epithelial disorder was observed 2, 4, 6, 8, 11 and 15 days after the instillation administration.

For assay [2], the system named is corneal sensitivity of rabbit cornea after corneal flap production. The assay can be described thus: Decrease of corneal sensitivity after corneal flap production in rabbit (Cochet-Bonnet corneal esthesiometer). The assay is classed as in vivo, Japanese white rabbit. As to conditions: 0.005% ophthalmic solution, 50 μL instillation 4 times per day for 17 days, compared with vehicle ophthalmic solution, FIG. 2 and FIG. 3. Here is the method: Male Japanese white rabbits (body weight 2.80-3.32 kg) purchased from KITAYAMA LABES Co., Ltd. were used. The animals were bred in a breeding room set to room temperature 23° C.±3° C., humidity 55%±10% RH, 12 hr lighting (08:00 lighting, 20:00 lights-out) from the arrival to the test end date. A solid feed (Labo R Stock, Nosan Corporation, 100-120 g/day) was given to the animals, and the animals were allowed to freely ingest tap water, passed through a sterilizer for animal drink, from an automatic-water supply apparatus. The test was performed on an approval from the animal care and use committee based on the Act on Welfare and Management of Animals (Act No. 105 of Oct. 1, 1973, final revision: Act No. 38 of Jun. 12, 2013) and the like.
As a test substance, [3-[2-[4-isopropyl-2-(4-trifluoromethyl)phenyl-5-thiazolyl]ethyl]-5-methyl-1,2-benzisoxazol-6-yl]oxyacetic acid (hereinafter to be referred to as compound A) was used. […]
Before production of corneal flap, the anterior ocular segment of the rabbits was macroscopically observed, and the rabbits showing no abnormality were selected. Then, using Cochet-Bonnet corneal esthesiometer (manufactured by LUNEAU), the corneal sensitivity at measurement locations 1 and 2 in FIG. 1 was measured, and the rabbits showing a corneal sensitivity threshold of not less than 15 mm at both measurement locations 1 and 2 were selected. […]

In the case of `Cc1cc2c(CCc3sc(-c4ccc(C(F)(F)F)cc4)nc3C(C)C)noc2cc1OCC(=O)O` [compound A, [3-[2-[4-isopropyl-2-(4-trifluoromethyl)phenyl-5-thiazolyl]ethyl]-5-methyl-1,2-benzisoxazol-6-yl]oxyacetic acid], at PPARδ, the PPARδ agonist activity result was “confirmed to have a PPARδ agonist activity”. For the same compound, the “corneal epithelial disorder, result in words” value in assay [1] (0.005% ophthalmic solution for 14 days, compared with non-administration and vehicle groups) is reported as “improved”. For the same compound, the “corneal epithelial disorder score (sum of 3 regions)” value is 4.06 ± 0.20 in assay [1] (8 days after administration, 0.005% ophthalmic solution, 10 μL 4 times per day, both eyes); 4.00 ± 0.13 in assay [1] (11 days after administration, 0.005% ophthalmic solution, 10 μL 4 times per day, both eyes); 4.00 ± 0.13 in assay [1] (15 days after administration, 0.005% ophthalmic solution, 10 μL 4 times per day, both eyes); 4.63 ± 0.33 in assay [1] (before administration (baseline), mean ± spread). Also, the “recovery of corneal sensitivity at measurement locations 1 and 2 after corneal flap production” value in assay [2] is given as “recovered faster”.
